The source of these data is patent US20220213102A1, “DIAZEPINONE DERIVATIVES AS CAPSID ASSEMBLY MODULATORS” (Janssen Sciences Ireland Unlimited Company, priority 2019, published 2022).

The assay deals with HBV. Put plainly: HBV replication inhibition assay (BDNA assay) in HepG2.2.15 cells. Format: cell-based. Conditions: Hepatitis B virus, HepG2.2.15, 144 h, encapsidated HBV DNA in supernatant at day 6, BDNA QuantiGene assay. As to the method: HBV replication inhibition by the disclosed compounds were determined in cells infected or transfected with HBV or cells with stably integrated HBV, such as HepG2.2.15 cells (Sells et al. 1987). In this example, HepG2.2.15 cells were maintained in cell culture medium containing 10% fetal bovine serum (FBS), Geneticin, L-glutamine, penicillin and streptomycin. HepG2.2.15 cells were seeded in 96-well plates at a density of 40,000 cells/well and were treated with serially diluted compounds at a final DMSO concentration of 0.5% either alone or in combination by adding drugs in a checker box format. Cells were incubated with compounds for three days, after which medium was removed and fresh medium containing compounds was added to cells and incubated for another three days. At day 6, supernatant was removed and treated with DNase at 37° C. for 60 minutes, followed by enzyme inactivation at 75° C. for 15 minutes. Encapsidated HBV DNA was released from the virions and covalently linked HBV polymerase by incubating in lysis buffer (Affymetrix QS0010) containing 2.5 μg proteinase K at 50° C. for 40 minutes. HBV DNA was denatured by addition of 0.2 M NaOH and detected using a branched DNA (BDNA) QuantiGene assay kit according to manufacturer recommendation (Affymetrix). HBV DNA levels were also quantified using qPCR, based on amplification of encapsidated HBV DNA extraction with QuickExtraction Solution (Epicentre Biotechnologies) and amplification of HBV DNA using HBV specific PCR probes that can hybridize to HBV DNA and a fluorescently labeled probe for quantitation. In addition, cell viability of HepG2.2.15 cells incubated with test compounds alone or in combination was determined by using CellTitre-Glo reagent according to the manufacturer protocol (Promega). The mean background signal from wells containing only culture medium was subtracted from all other samples, and percent inhibition at each compound concentration was calculated by normalizing to signals from HepG2.2.15 cells treated with 0.5% DMSO using equation E1.
% inhibition=(DMSOave−Xi)/DMSOave×100% E1:
where DMSOave is the mean signal calculated from the wells that were treated with DMSO control (0% inhibition control) and Xi is the signal measured from the individual wells. EC50 values, effective concentrations that achieved 50% inhibitory effect, were determined by non-linear fitting using Graphpad Prism software (San Diego, Calif.) and equation E2.
Y=Ymin+(Ymax−Ymin)/(1+10(Log EC50−X)×HillSlope) E2:
where Y represents percent inhibition values and X represents the logarithm of compound concentrations.
Selected disclosed compounds were assayed in the HBV replication assay (BDNA assay), as described above, and a representative group of these active compounds is shown in Table 3.
In general, EC50 refers to the midpoint of the concentration-response curve. In the case of `CN1CC(c2nc[nH]n2)Cn2nc3c(c2C1=O)CN(C(=O)Nc1ccc(F)c(C#N)c1)CC3` (stereo not shown) [Example 1, N-(3-Cyano-4-fluorophenyl)-10-methyl-11-oxo-8-(1H-1,2,4-triazol-3-yl)-3,4,8,9,10,11-hexahydro-1H-pyrido[4′,3′:3,4]pyrazolo[1,5-a][1,4]diazepine-2(7H)-carboxamide], the concentration for a half-maximal effect (EC50) is over 4000 nM. For `CN1CC(c2ncno2)Cn2nc3c(c2C1=O)CN(C(=O)Nc1ccc(F)c(C#N)c1)CC3` (stereo not shown) [Example 2, N-(3-Cyano-4-fluorophenyl)-10-methyl-8-(1,2,4-oxadiazol-5-yl)-11-oxo-3,4,8,9,10,11-hexahydro-1H-pyrido[4′,3′:3,4]pyrazolo[1,5-a][1,4]diazepine-2(7H)-carboxamide] the value was over 4000 nM. Turning to `CN1CC(c2nnn[nH]2)Cn2nc3c(c2C1=O)CN(C(=O)Nc1ccc(F)c(C#N)c1)CC3` (stereo not shown) [Example 3, N-(3-Cyano-4-fluorophenyl)-10-methyl-11-oxo-8-(1H-tetrazol-5-yl)-3,4,8,9,10,11-hexahydro-1H-pyrido[4′,3′:3,4]pyrazolo[1,5-a][1,4]diazepine-2(7H)-carboxamide], the concentration for a half-maximal effect (EC50) is over 4000 nM.

As to `CN1CC(c2cc[nH]n2)Cn2nc3c(c2C1=O)CN(C(=O)Nc1ccc(F)c(Cl)c1)CC3` (stereo not shown) [Example 4, N-(3-Chloro-4-fluorophenyl)-10-methyl-11-oxo-8-(1H-pyrazol-3-yl)-3,4,8,9,10,11-hexahydro-1H-pyrido[4′,3′:3,4]pyrazolo[1,5-a][1,4]diazepine-2(7H)-carboxamide], the EC50 came out at 93 nM.

In the case of `CN1CC(c2ccnn2C)Cn2nc3c(c2C1=O)CN(C(=O)Nc1ccc(F)c(C#N)c1)CC3` (stereo not shown) [Example 6, N-(3-Cyano-4-fluorophenyl)-10-methyl-8-(1-methyl-1H-pyrazol-5-yl)-11-oxo-3,4,8,9,10,11-hexahydro-1H-pyrido[4′,3′:3,4]pyrazolo[1,5-a][1,4]diazepine-2(7H)-carboxamide], the EC50 came to 83 nM. On to `CN1CC(O)(c2ccccc2)Cn2nc3c(c2C1=O)CN(C(=O)Nc1ccc(F)c(C#N)c1)CC3` (stereo not shown) [Example 15, N-(3-Cyano-4-fluoro-phenyl)-11-hydroxy-13-methyl-14-oxo-11-phenyl-4,8,9,13-tetrazatricyclo[7.5.0.0^2,7]tetradeca-1,7-diene-4-carboxamide], for which the EC50 came to 140 nM. For `CN1CC(F)(c2ccccc2)Cn2nc3c(c2C1=O)CN(C(=O)Nc1ccc(F)c(C#N)c1)CC3` (stereo not shown) [Example 16, N-(3-Cyano-4-fluorophenyl)-8-fluoro-10-methyl-11-oxo-8-phenyl-3,4,8,9,10,11-hexahydro-1H-pyrido[4′,3′:3,4]pyrazolo[1,5-a][1,4]diazepine-2(7H)-carboxamide], the concentration for a half-maximal effect (EC50) was 176 nM.
